{
  "source": "patent US20160237450A1",
  "about": "“METHOD FOR ENHANCING DROUGHT TOLERANCE IN PLANTS” (Plant Response Biotech S.L., priority 2015, published 2016)",
  "assay_type_in_all_cases": "in vivo",
  "key": {"pepper plants ('Murano')": {"tested_on": "pepper plants ('Murano')", "assay": "Pepper plant survival under extreme drought", "experimental": "(§1) For each drought or limited water experiment 480 seeds (of either pepper, barley, tomato, cucumber or corn) were sown, producing 384 plants in 512 cm^3 pots (4 plants per pot). Plants were grown under chamber conditions at 21° C. for 3 weeks. Then, the plants were moved to a greenhouse, where average temperature was 25° C. to 28° C. Spray and irrigation treatments as described herein were done when the plants had two extended leaves and the next pair of leaves were coming up.\n(§2) Treatments: Twelve pots (containing 48 plants) were irrigated with 40 ml of either: water, 0.1 g/L TMAO di-hydrate solution, 1.0 g/L TMAO di-hydrate solution, or 5.5 g/L TMAO di-hydrate solution. Another set of 12 pots containing 48 plants were sprayed with 40 ml of either water (3.3 ml in average per pot), a solution containing 0.1 g/L TMAO di-hydrate solution, 1.0 g/L TMAO di-hydrate, or 5 g/L, or 10 g/L TMAO di-hydrate. Further sets of 12 pots containing 48 plants were both sprayed with each initial solution TMAO di-hydrate solution and further irrigated with the same TMAO di-hydrate solutions used in the control water sprayed plants. All pots were also watered with 40 ml of water. The sprayed plants were watered with the same volume of water as the “irrigated plants). The pots were located on plastic glass to maintain constant moisture and to avoid liquid spillage during watering. Trays containing the pots were located on greenhouse tables. The distribution of the trays on the table and the position on the pots in the tray was changed every week to avoid position effects.\n(§3) After the treatments described above, the plants were not watered until the pots completely lost their moisture, taking about 4 to 8 days depending on the season, at which point the plants were extremely wilted for the extreme drought experiments. The plants were then watered once with solutions containing the different amounts of TMAO di-hydrate (0.1 g/L, 1.0 g/L, 5 g/L, or 10 g/L) or just water, after which the plants were left to lose their moisture completely again for three consecutive cycles of watering after wilting. For the “extreme drought” experiments plants were allowed to wilt severely before watering and then the plant survival rate was recorded and analyzed.\nTMAO di-hydrate applied exogenously, which increases the endogenous content of TMAO as if the plants were overexpressing an FMO protein at least 4 times increases plant survival in pepper plants under extreme drought conditions. ‘Murano’ pepper seeds were sown, grown and treated as described above."}, "[1]": {"tested_on": "cucumber plants ('Marketer')", "assay": "Cucumber plant survival under extreme drought", "experimental": "as §1, §2, §3\nTMAO di-hydrate applied exogenously which increases the endogenous content of TMAO as if the plants were overexpressing an FMO protein at least 4 times increases plant survival in cucumber under extreme drought conditions. ‘Marketer’ cucumber seeds were sown, grown and treated as described above."}, "lettuce plants (Iceberg)": {"tested_on": "lettuce plants (Iceberg)", "assay": "Yield production without drought stress, lettuce", "settings": "1 g/l spray every 4 weeks for 3 months, no drought stress", "experimental": "(§4) In order to determine the plant yield productivity under normal conditions, ‘Sabrina’, ‘Candonga’ and ‘Fortuna’ strawberry varieties, leek, lettuce, “Iceberg” variety, broccoli “Parthenon” variety, celery or kohlrabi plants, were grown under standard production conditions and 120 plants of each variety per treatment (where the treatment was a control comprising standard watering or 1 g/L of TMAO di-hydrate spray every four weeks) were analyzed. Plants were located in four (4) different positions for each group of 30 plants from the same treatment. Fruits, leaves or roots were harvested from individual plants and total weight was determined for each plant.\n(§5) Root or leaves yield was determined in the plants treated with 1 g/l of TMAO di-hydrate or water as described above in order to evaluate the trade-off costs of the treatment with no drought stress."}, "[2]": {"tested_on": "broccoli plants (Parthenon)", "assay": "Yield production without drought stress, broccoli", "settings": "1 g/l spray every 4 weeks for 3 months, no drought stress", "experimental": "as §4, §5"}, "corn plants ('FAO700') [3]": {"tested_on": "corn plants ('FAO700')", "assay": "Corn number of green leaves under limited water", "settings": "30% water", "experimental": "(§6) In order to determine the drought or drought stress tolerance after seed treatments with TMAO di-hydrate and germination in the presence of TMAO di-hydrate, barley “Hispanic” seeds, corn “FAO700” seeds, and “Sambro” sunflower seeds were surface sterilized for 3 minutes in ethanol 70%, then rinsed twice and finally included in a pre-treatment solution of 1 g/L TMAO di-hydrate solution (or just water) under shaking for 3 hours at a dose of 1 litre per Kg of seeds. Then, the seeds were sown in randomized plots of 10 sqm in a surface of 2.000 sqm. Chlorophyll content was measured 1 month before harvest. In corn irrigation was applied in half of the plots while the other half only received an initial establishment watering. The barley plots received 200 l of rain per m^2 through the growing season. Some of the plots received a second spray treatment with 1 g/liter of TMAO. […] At least 3 independent plants were treated per experiment.\nTMAO di-hydrate applied exogenously which increases the endogenous content of TMAO as if the plants were overexpressing an FMO protein at least 4 times increases plant production in corn under limited water irrigation. Plants were irrigated with 30% of the water they normally require. ‘FAO700’ corn seeds were sown, grown and treated as described. Spray treatments with 1 g/L TMAO increased plant number of green leaves."}, "corn plants ('FAO700') [4]": {"tested_on": "corn plants ('FAO700')", "assay": "Corn chlorophyll content under limited water", "settings": "30% water; 1 g/L spray; after three months", "experimental": "as §6\nTMAO di-hydrate applied exogenously increases plant production in corn which increases the endogenous content of TMAO as if the plants were overexpressing an FMO protein at least 4 times under limited water irrigation. ‘FAO700” corn seeds were sown, grown and treated as described above. […] After this time, the absorbance of the suspension (OD663) was determined as an indicator of chlorophyll concentration."}, "[5]": {"settings": "irrigation 0.1 g/L, initial spray 0.1 g/L"}, "[6]": {"settings": "irrigation 0.1 g/L, initial spray 1 g/L"}, "[7]": {"settings": "irrigation 0.1 g/L, initial spray water"}, "[8]": {"settings": "irrigation 1 g/L, initial spray 0.1 g/L"}, "[9]": {"settings": "irrigation 1 g/L, initial spray 1 g/L"}, "[10]": {"settings": "irrigation 1 g/L, initial spray water"}, "[11]": {"settings": "irrigation 5 g/L, initial spray 0.1 g/L"}, "[12]": {"settings": "irrigation 5 g/L, initial spray 1 g/L"}, "[13]": {"settings": "irrigation 5 g/L, initial spray water"}, "[14]": {"settings": "irrigation all regimes, initial spray 0.1 g/L"}, "[15]": {"settings": "irrigation all regimes, initial spray 1 g/L"}, "[16]": {"settings": "irrigation water, initial spray 0.1 g/L"}, "[17]": {"settings": "irrigation water, initial spray 1 g/L"}},
  "data": [
    {"smiles": "C[N+](C)(C)[O-].O.O", "note": "[TMAO di-hydrate, trimethylamine N-oxide di-hydrate]", "values": [
      {"measurement": "SURVIVAL RATE (%)", "setting": "pepper plants ('Murano'); [5]", "value": "33.3 ± 8.3", "unit": "%"},
      {"measurement": "SURVIVAL RATE (%)", "setting": "pepper plants ('Murano'); [6]", "value": "54.1 ± 8.3", "unit": "%"},
      {"measurement": "SURVIVAL RATE (%)", "setting": "pepper plants ('Murano'); irrigation 0.1 g/L, initial spray 10 g/L", "value": "83.3 ± 8.3", "unit": "%"},
      {"measurement": "SURVIVAL RATE (%)", "setting": "pepper plants ('Murano'); [7]", "value": "29.1 ± 8.3", "unit": "%"},
      {"measurement": "SURVIVAL RATE (%)", "setting": "pepper plants ('Murano'); [8]", "value": "33.3 ± 7.7", "unit": "%"},
      {"measurement": "SURVIVAL RATE (%)", "setting": "pepper plants ('Murano'); [9]", "value": "33.3 ± 7.7", "unit": "%"},
      {"measurement": "SURVIVAL RATE (%)", "setting": "pepper plants ('Murano'); irrigation 1 g/L, initial spray 10 g/L", "value": "37.5 ± 7.7", "unit": "%"},
      {"measurement": "SURVIVAL RATE (%)", "setting": "pepper plants ('Murano'); [10]", "value": "0.0 ± 7.7", "unit": "%"},
      {"measurement": "SURVIVAL RATE (%)", "setting": "pepper plants ('Murano'); [11]", "value": "100 ± 3.8", "unit": "%"},
      {"measurement": "SURVIVAL RATE (%)", "setting": "pepper plants ('Murano'); [12]", "value": "100 ± 3.8", "unit": "%"},
      {"measurement": "SURVIVAL RATE (%)", "setting": "pepper plants ('Murano'); irrigation 5 g/L, initial spray 10 g/L", "value": "87.5 ± 3.8", "unit": "%"},
      {"measurement": "SURVIVAL RATE (%)", "setting": "pepper plants ('Murano'); [13]", "value": "95.8 ± 3.8", "unit": "%"},
      {"measurement": "SURVIVAL RATE (%)", "setting": "pepper plants ('Murano'); [14]", "value": "51.0 ± 3.6", "unit": "%"},
      {"measurement": "SURVIVAL RATE (%)", "setting": "pepper plants ('Murano'); [15]", "value": "62.5 ± 3.6", "unit": "%"},
      {"measurement": "SURVIVAL RATE (%)", "setting": "pepper plants ('Murano'); irrigation all regimes, initial spray 10 g/L", "value": "71.8 ± 3.6", "unit": "%"},
      {"measurement": "SURVIVAL RATE (%)", "setting": "pepper plants ('Murano'); [16]", "value": "37.5 ± 8.1", "unit": "%"},
      {"measurement": "SURVIVAL RATE (%)", "setting": "pepper plants ('Murano'); [17]", "value": "62.5 ± 8.1", "unit": "%"},
      {"measurement": "SURVIVAL RATE (%)", "setting": "pepper plants ('Murano'); irrigation water, initial spray 10 g/L", "value": "79.1 ± 8.1", "unit": "%"},
      {"measurement": "SURVIVAL RATE (%)", "setting": "[1]; [5]", "value": "82.9 ± 7.4", "unit": "%"},
      {"measurement": "SURVIVAL RATE (%)", "setting": "[1]; [6]", "value": "91.6 ± 7.4", "unit": "%"},
      {"measurement": "SURVIVAL RATE (%)", "setting": "[1]; irrigation 0.1 g/L, initial spray 5 g/L", "value": "95.8 ± 7.4", "unit": "%"},
      {"measurement": "SURVIVAL RATE (%)", "setting": "[1]; [7]", "value": "45.8 ± 7.4", "unit": "%"},
      {"measurement": "SURVIVAL RATE (%)", "setting": "[1]; [8]", "value": "91.6 ± 5.9", "unit": "%"},
      {"measurement": "SURVIVAL RATE (%)", "setting": "[1]; [9]", "value": "91.6 ± 5.9", "unit": "%"},
      {"measurement": "SURVIVAL RATE (%)", "setting": "[1]; irrigation 1 g/L, initial spray 5 g/L", "value": "91.6 ± 5.9", "unit": "%"},
      {"measurement": "SURVIVAL RATE (%)", "setting": "[1]; [10]", "value": "87.5 ± 5.9", "unit": "%"},
      {"measurement": "SURVIVAL RATE (%)", "setting": "[1]; [11]", "value": "75.0 ± 7.2", "unit": "%"},
      {"measurement": "SURVIVAL RATE (%)", "setting": "[1]; [12]", "value": "95.8 ± 7.2", "unit": "%"},
      {"measurement": "SURVIVAL RATE (%)", "setting": "[1]; irrigation 5 g/L, initial spray 5 g/L", "value": "95.8 ± 7.2", "unit": "%"},
      {"measurement": "SURVIVAL RATE (%)", "setting": "[1]; [13]", "value": "66.6 ± 7.2", "unit": "%"},
      {"measurement": "SURVIVAL RATE (%)", "setting": "[1]; [14]", "value": "80.1 ± 3.4", "unit": "%"},
      {"measurement": "SURVIVAL RATE (%)", "setting": "[1]; [15]", "value": "92.7 ± 3.4", "unit": "%"},
      {"measurement": "SURVIVAL RATE (%)", "setting": "[1]; irrigation all regimes, initial spray 5 g/L", "value": "94.7 ± 3.4", "unit": "%"},
      {"measurement": "SURVIVAL RATE (%)", "setting": "[1]; [16]", "value": "83.3 ± 7.2", "unit": "%"},
      {"measurement": "SURVIVAL RATE (%)", "setting": "[1]; [17]", "value": "91.6 ± 7.2", "unit": "%"},
      {"measurement": "SURVIVAL RATE (%)", "setting": "[1]; irrigation water, initial spray 5 g/L", "value": "95.8 ± 7.2", "unit": "%"},
      {"measurement": "Yield production, % Control", "setting": "lettuce plants (Iceberg)", "value": 112, "unit": "%"},
      {"measurement": "Yield production, % Control", "setting": "[2]", "value": 120, "unit": "%"},
      {"measurement": "increase in biomass production shown in green leaf production over untreated plants with 30% irrigation", "setting": "corn plants ('FAO700') [3]; 1 g/L (rows 3 and 4: spray, seed)", "value": 47, "unit": "%"},
      {"measurement": "AVERAGE NUMBER OF GREEN LEAVES", "setting": "corn plants ('FAO700') [3]; 1 g/L seed treatment", "value": "8.50 ± 0.41"},
      {"measurement": "AVERAGE NUMBER OF GREEN LEAVES", "setting": "corn plants ('FAO700') [3]; 1 g/L spray", "value": "8.50 ± 0.25"},
      {"measurement": "OD663 ABSORVANCE (CHLOROPHYLL a)", "setting": "corn plants ('FAO700') [4]", "value": "0.7278 ± 0.076"}
    ]}
  ]
}
